Measured values taken from US20220177538A1, “CO-AGONISTS AT GLP-1 AND GIP RECEPTORS SUITABLE FOR ORAL DELIVERY” (Novo Nordisk A/S, priority 2020, published 2022).
Read-outs that look alike come from different tables or passages of the source. Starred links: 1 amine or outer side, 2 acyl side, 3 side chain; linkers in the order of their positions; H or OH if unused. Non-standard residues stand in square brackets, D forms with d. Residues, ends and D or L forms follow the SMILES beside them. Groups on a side chain read outwards from the residue. *: point of attachment. C18 diacid = O=C(O)CCCCCCCCCCCCCCCCC(=O)*; γGlu = O=C(O)[C@H](CCC(=O)[*:2])N[*:1]; εLys = N[C@@H](CCCCN[*:1])C(=O)[*:2]; Aib = CC(C)(N)C(=O)O

Assays:
human GLP-1 receptor = human GLP-1 receptor (Homo sapiens, UniProt P43220); assay: In vitro functional potency, CRE luciferase reporter, whole BHK cells (hGLP-1R); assay type: cell-based; parameters: expressed in transfected cells; host or cells: BHK (parent line BHKTS13), clone BHK CRE luc2P hGLP-1R; conditions: BHK CRE luc2P hGLP-1R cells
Sequence of human GLP-1 receptor (P43220 24-463): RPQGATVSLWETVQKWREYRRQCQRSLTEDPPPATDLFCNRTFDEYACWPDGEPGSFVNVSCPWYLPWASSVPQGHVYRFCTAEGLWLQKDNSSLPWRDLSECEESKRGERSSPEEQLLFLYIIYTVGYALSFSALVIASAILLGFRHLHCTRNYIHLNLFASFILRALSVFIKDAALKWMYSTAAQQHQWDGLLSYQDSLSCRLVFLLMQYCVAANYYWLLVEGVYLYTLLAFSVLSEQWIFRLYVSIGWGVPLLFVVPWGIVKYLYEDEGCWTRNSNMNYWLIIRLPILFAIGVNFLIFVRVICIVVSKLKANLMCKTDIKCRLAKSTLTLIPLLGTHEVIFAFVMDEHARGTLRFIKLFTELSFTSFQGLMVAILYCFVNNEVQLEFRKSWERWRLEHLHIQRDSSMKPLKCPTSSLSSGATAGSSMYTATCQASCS
Procedure, shortened: (§1)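 BHK CRE luc2P cells stably expressing hGIPR or hGLP-1R were seeded at 5000 cells/well overnight. They were treated 3 h at 37° C with a 12-point, 3.5-fold compound series in buffer with or without HSA, and luciferase luminescence was read. Values come from log(agonist)-response regression, averaging at least two replicates.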

human GIP receptor = target: T1, human GIP receptor (Homo sapiens, UniProt P48546); assay: In vitro functional potency, CRE luciferase reporter, whole BHK cells (hGIPR); assay type: cell-based; conditions: BHK CRE luc2P hGIPR cells
T1 construct: expressed in transfected cells; host or cells: BHK (parent line BHKTS13), clone BHK CRE luc2P hGIPR
T1 sequence (P48546 22-466): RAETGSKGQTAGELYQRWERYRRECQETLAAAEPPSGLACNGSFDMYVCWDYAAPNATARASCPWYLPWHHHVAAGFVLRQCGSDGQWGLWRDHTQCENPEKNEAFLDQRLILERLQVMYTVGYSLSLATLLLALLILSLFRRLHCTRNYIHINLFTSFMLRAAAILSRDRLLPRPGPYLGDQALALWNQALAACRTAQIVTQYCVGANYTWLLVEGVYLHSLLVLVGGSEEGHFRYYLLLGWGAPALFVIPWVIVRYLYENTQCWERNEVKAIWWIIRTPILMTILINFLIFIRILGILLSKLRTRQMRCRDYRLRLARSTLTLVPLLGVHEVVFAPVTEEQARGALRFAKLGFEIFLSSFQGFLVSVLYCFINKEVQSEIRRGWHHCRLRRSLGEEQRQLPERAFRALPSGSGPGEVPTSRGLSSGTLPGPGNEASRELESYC
Procedure, shortened: as §1

[1] = hGLP-1R, CRE Luc 1% HSA EC50, 1% HSA
[2] = hGIPR, CRE Luc 1% HSA EC50, 1% HSA
[3] = 0% HSA, read-out: hGLP-1R, CRE Luc 0% HSA EC50
[4] = 0% HSA, read-out: hGIPR, CRE Luc 0% HSA EC50

Row | Compound | EC50 (human GLP-1 receptor; hGLP-1R, CRE Luc 0% HSA EC50, 0% HSA) [nM] | EC50 (human GLP-1 receptor; [1]) [nM] | EC50 (human GIP receptor; hGIPR, CRE Luc 0% HSA EC50, 0% HSA) [nM] | EC50 (human GIP receptor; [2]) [nM] | EC50 (human GLP-1 receptor; [3]) [nM] | EC50 (human GIP receptor; [4]) [nM]
1 | CC[C@H](C)[C@H](NC(=O)[C@H](Cc1ccccc1)NC(=O)[C@H](CCC(=O)O)NC(=O)[C@H](CCCNC(=N)N)NC(=O)[C@H](C)NC(=O)[C@H](C)NC(=O)[C@H](CCC(N)=O)NC(=O)[C@H](CCCCNC(=O)[C@@H](N)CCCCNC(=O)[C@@H](N)CCCCNC(=O)CC[C@H](NC(=O)CCCCCCCCCCCCCCCCC(=O)O)C(=O)O)NC(=O)[C@H](CCC(=O)O)NC(=O)[C@H](CC(C)C)NC(=O)[C@H](CC(C)C)NC(=O)[C@@H](NC(=O)[C@H](CO)NC(=O)[C@H](Cc1ccc(O)cc1)NC(=O)[C@H](CC(=O)O)NC(=O)[C@H](CO)NC(=O)[C@@H](NC(=O)[C@H](Cc1ccccc1)NC(=O)[C@@H](NC(=O)CNC(=O)[C@H](CCC(=O)O)NC(=O)C(C)(C)NC(=O)[C@@H](N)Cc1ccc(O)cc1)[C@@H](C)O)[C@@H](C)O)[C@@H](C)CC)C(=O)N[C@@H](CCC(=O)O)C(=O)N[C@@H](Cc1c[nH]c2ccccc12)C(=O)N[C@@H](CC(C)C)C(=O)N[C@@H](CC(C)C)C(=O)N[C@@H](CCCNC(=N)N)C(=O)NCC(=O)NCC(=O)N1CCC[C@H]1C(=O)N[C@@H](CCC(=O)O)C(=O)N[C@@H](CO)C(=O)NCC(=O)N[C@@H](C)C(=O)N1CCC[C@H]1C(=O)N1CCC[C@H]1C(=O)N1CCC[C@H]1C(=O)N[C@@H](CO)C(=O)O [Compound 28] (H-Y[Aib]EGTFTSDYSILLEK([εLys-εLys-γGlu-C18 diacid])QAAREFIEWLLRGGPESGAPPPS-OH) | 0.0062 | 0.139 | 0.0066 | 0.0865 | – | –
2 | CC[C@H](C)[C@H](NC(=O)[C@H](Cc1ccccc1)NC(=O)[C@H](CCC(=O)O)NC(=O)[C@H](CCC(N)=O)NC(=O)[C@H](C)NC(=O)[C@H](C)NC(=O)[C@H](CCC(N)=O)NC(=O)[C@H](CCCCNC(=O)[C@@H](N)CCCCNC(=O)[C@@H](N)CCCCNC(=O)CC[C@H](NC(=O)CCCCCCCCCCCCCCCCC(=O)O)C(=O)O)NC(=O)[C@H](CCC(=O)O)NC(=O)[C@H](CC(C)C)NC(=O)[C@H](CC(C)C)NC(=O)[C@@H](NC(=O)[C@H](CO)NC(=O)[C@H](Cc1ccc(O)cc1)NC(=O)[C@H](CC(=O)O)NC(=O)[C@H](CO)NC(=O)[C@@H](NC(=O)[C@H](Cc1ccccc1)NC(=O)[C@@H](NC(=O)CNC(=O)[C@H](CCC(=O)O)NC(=O)C(C)(C)NC(=O)[C@@H](N)Cc1ccc(O)cc1)[C@@H](C)O)[C@@H](C)O)[C@@H](C)CC)C(=O)N[C@@H](CCC(=O)O)C(=O)N[C@@H](Cc1c[nH]c2ccccc12)C(=O)N[C@@H](CC(C)C)C(=O)N[C@@H](CC(C)C)C(=O)N[C@@H](C)C(=O)NCC(=O)NCC(=O)N1CCC[C@H]1C(=O)N[C@@H](CO)C(=O)N[C@@H](CO)C(=O)NCC(=O)N[C@@H](C)C(=O)N1CCC[C@H]1C(=O)N1CCC[C@H]1C(=O)N1CCC[C@H]1C(=O)N[C@@H](CO)C(=O)O [Compound 29] (H-Y[Aib]EGTFTSDYSILLEK([εLys-εLys-γGlu-C18 diacid])QAAQEFIEWLLAGGPSSGAPPPS-OH) | – | 0.379 | – | 0.102 | 0.0168 | 0.0038
3 | CC[C@H](C)[C@H](NC(=O)[C@H](Cc1ccccc1)NC(=O)[C@H](CCC(=O)O)NC(=O)[C@H](CCCNC(=N)N)NC(=O)[C@H](C)NC(=O)[C@H](C)NC(=O)[C@H](CCC(N)=O)NC(=O)[C@H](CCCCNC(=O)[C@@H](N)CCCCNC(=O)[C@@H](N)CCCCNC(=O)CC[C@H](NC(=O)CCCCCCCCCCCCCCCCC(=O)O)C(=O)O)NC(=O)[C@H](CCC(=O)O)NC(=O)[C@H](CC(C)C)NC(=O)[C@H](CC(C)C)NC(=O)[C@@H](NC(=O)[C@H](CO)NC(=O)[C@H](Cc1ccc(O)cc1)NC(=O)[C@H](CC(=O)O)NC(=O)[C@H](CO)NC(=O)[C@@H](NC(=O)[C@H](Cc1ccccc1)NC(=O)[C@@H](NC(=O)CNC(=O)[C@H](CCC(=O)O)NC(=O)C(C)(C)NC(=O)[C@@H](N)Cc1ccc(O)cc1)[C@@H](C)O)[C@@H](C)O)[C@@H](C)CC)C(=O)N[C@@H](CCC(=O)O)C(=O)N[C@@H](Cc1c[nH]c2ccccc12)C(=O)N[C@@H](CC(C)C)C(=O)N[C@@H](CC(C)C)C(=O)N[C@@H](C)C(=O)NCC(=O)NCC(=O)N1CCC[C@H]1C(=O)N[C@@H](CO)C(=O)N[C@@H](CO)C(=O)NCC(=O)N[C@@H](C)C(=O)N1CCC[C@H]1C(=O)N1CCC[C@H]1C(=O)N1CCC[C@H]1C(=O)N[C@@H](CO)C(=O)O [Compound 31] (H-Y[Aib]EGTFTSDYSILLEK([εLys-εLys-γGlu-C18 diacid])QAAREFIEWLLAGGPSSGAPPPS-OH) | – | 0.202 | – | 0.189 | 0.0042 | 0.0047
